Test results: patent publication US10175230B2, “Use of biomarkers for evaluating the effectiveness of active ingredients” (LABORATOIRES EXPANSCIENCE, priority 2013, dated 2019)
Marks after values point to notes of the source that are not given here.

Experiments:
[1] = system: Ehrlich ascites carcinoma tumor cells; settings: perseitol associated with a potassium ion; Shibuya et al. 1999; cited from earlier work
PAD1 = assay: Gene expression of peptidylarginine deiminase (PAD1) by RT-PCR; type: cell-based, human; settings: 10^−7 M, 48 hours, positive reference
Protocol: Normal human epidermal keratinocytes, cultured in differentiation-inducing medium (supplemented with Ca++), were incubated for 48 hours in the presence of 0.005% and 0.05% avocado perseose or 10^-7M vitamin D3 (1α,25-dihydroxyvitamin D3; Sigma), positive reference.
At the conclusion of the treatment, the RNA were extracted and the gene expression of PAD1 was evaluated by RT-PCR; the reference gene GAPDH was used to normalize the results.

hyaluronic acid = assay: Production of hyaluronic acid by keratinocytes, ELISA of supernatants; type: cell-based, human; settings: 10^−7 M, 24 hours, positive reference
Protocol: Normal human epidermal keratinocytes were incubated in the presence of 0.005% and 0.05% avocado perseose or 10^-7 M retinoic acid (all-trans-retinoic acid; Sigma), positive reference.
After 24 hours of incubation, hyaluronic acid produced by the keratinocytes was assayed in the cultured supernatants with an ELISA (Tebu). The quantity of hyaluronic acid measured was related to the number of living cells estimated by means of a neutral red assay.

**Q.** With `OCC(O)C(O)C(O)C(O)C(O)CO` (centres unmarked) [perseitol, Perseitol] as the compound, how does the “Incorporation of 3H-leucine” value [1] read?
**A.** The value was “inhibits”.

**Q.** Which “PAD1 (Relative Quantity normalized by GAPDH)” value (PAD1) does the source give for `C=C1/C(=C\C=C2/CCC[C@]3(C)[C@@H]([C@H](C)CCCC(C)(C)O)CC[C@@H]23)C[C@@H](O)C[C@@H]1O` [Vitamin D3, 1α,25-dihydroxyvitamin D3] here?
**A.** Its value is 2.66.

**Q.** And the “Stimulation of PAD1 gene expression versus control cells” value (PAD1)?
**A.** Its value is “+166% **”.

**Q.** With `CC1=C(/C=C/C(C)=C/C=C/C(C)=C/C(=O)O)C(C)(C)CCC1` [Retinoic acid, all-trans-retinoic acid] as the compound, how does the “Hyaluronic acid (ng/ml/living cells)” value (hyaluronic acid) read?
**A.** The value was 544.024 ± 34.026 ng/ml/living cells.

**Q.** What about the “Increase of hyaluronic acid produced versus control cells” value (hyaluronic acid) of the same compound?
**A.** Its value is “+119% ***”.
